This passage reports IC50 results from patent publication US20040220188A1, “Alkylidene pyrazolidinedione derivatives” (priority 2001, published 2004).

Each structure is given as a SMILES string.

Assay [1] deals with T1, PTP1B (Homo sapiens, UniProt P18031).
T1 construct: using the catalytic core of a human recombinant PTP, as an enzyme; made in house
T1 sequence (P18031 3-277 limits assumed): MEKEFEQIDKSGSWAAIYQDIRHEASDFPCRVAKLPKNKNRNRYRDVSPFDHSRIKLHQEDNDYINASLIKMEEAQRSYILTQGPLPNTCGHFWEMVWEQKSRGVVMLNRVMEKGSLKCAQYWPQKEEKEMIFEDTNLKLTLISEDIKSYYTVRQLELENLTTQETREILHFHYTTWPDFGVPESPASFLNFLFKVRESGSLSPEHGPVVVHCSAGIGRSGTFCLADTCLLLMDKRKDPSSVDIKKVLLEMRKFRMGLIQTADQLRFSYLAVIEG
The experiment in a line: PTP Enzyme Assay (DiFMUP substrate), PTP1B. Format: biochemical. The following applies: catalytic core of human recombinant PTP, DiFMUP at Km; read-out: inhibition (IC50) with regard to PTP1B. The text has this:
(§1) (1) The PTP Enzyme Assay (In Vitro Assay)
(§2) The PTP Enzyme Assay aims at determining the extent of inhibition of the examined PTP (e.g. PTP1B, TC-PTP, PTP-β, DEP-1, LAR, SHP-1, SHP-2, GLEPP-1, PTP-κ, PTP-μ, VHR, hVH5) in the presence of a test compound. The inhibition is illustrated by IC50 values which denote the concentration necessary to achieve an inhibition of 50% of the given PTP.
(§3) The cloning and expression of the catalytic domain of PTPs (e.g. PTP1B, TC-PTP, PTP-β, DEP-1, LAR, SHP-1, SHP-2, GLEPP-1, PTP-κ, PTP-μ, VHR, hVH5) may be performed as described in J. Biol. Chem. 2000, 275(13), pp 9792-9796.
(§4) Assays were performed in a 96 well plate format, using the catalytic core of a human recombinant PTP, as an enzyme and 6,8-DiFluoro-4-MethylUmbelliferyl Phosphate (DiFMUP, Molecular Probes, D-6567) as a substrate at the Km value which was determined for each enzyme. Compounds to be tested were dissolved in 100% DMSO at a concentration of 2 mM. […] The reaction ran for 30 minutes at room temperature before reading the fluorescence intensity on a Perkin-Elmer Victor 2 spectrofluorimeter (excitation at 355 nm, emission at 460 nm, for 0.1 s). The percentage of inhibition relative to the fluorescence observed in the presence of solvent (5% DMSO) alone was determined. The IC50 values for inhibition were determined in triplicates on at least 3 separate occasions.

Assay [2] concerns the target T2, GLEPP-1 (Homo sapiens, UniProt Q16827).
T2 construct: using the catalytic core of a human recombinant PTP, as an enzyme; made in house
T2 sequence (Q16827 938-1195 limits assumed): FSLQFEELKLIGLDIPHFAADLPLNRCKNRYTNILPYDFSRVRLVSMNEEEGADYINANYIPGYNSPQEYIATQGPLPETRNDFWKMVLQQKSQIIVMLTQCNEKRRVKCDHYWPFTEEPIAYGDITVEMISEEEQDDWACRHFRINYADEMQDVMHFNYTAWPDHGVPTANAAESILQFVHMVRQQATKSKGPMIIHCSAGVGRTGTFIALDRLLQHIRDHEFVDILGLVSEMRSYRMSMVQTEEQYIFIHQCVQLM
Kind of assay: PTP Enzyme Assay (DiFMUP substrate), GLEPP-1. The assay is classed as biochemical. The following applies: catalytic core of human recombinant PTP, DiFMUP at Km; read-out: inhibition (IC50) with regard to GLEPP-1.
Excerpt: as §1, §2, §3, §4

Regarding `O=C1NN(c2ccc(I)cc2)C(=O)C1=Cc1ccc(Br)o1` [Compound 25, 4-(5-Bromo-furan-2-ylmethylene)-1-(4-iodo-phenyl)-pyrazolidine-3,5-dione], the IC50 (as a rule, the concentration at which inhibition is half-maximal) in assay [1] was 40 nM; in assay [2], roughly 130 nM.

Turning to `O=C1NN(c2ccc(I)cc2)C(=O)C1=Cc1cc(Br)c(O)c2ncccc12` [Compound 35], the IC50 in assay [1] was found to be 580 nM.

Regarding `O=C1NN(c2ccc(I)cc2)C(=O)C1=Cc1ccc([N+](=O)[O-])o1` [Compound 45, 1-(4-Iodo-phenyl)-4-(5-nitro-furan-2-ylmethylene)-pyrazolidine-3,5-dione], the IC50 in assay [2] was 47 nM.
